The test system of series [1] is pig pancreas alpha-amylase. Kind of series: Degradation by pig pancreas alpha-amylase. The conditions noted are these: for G1 (glucose) in degradation product by alpha-amylase / G2 (maltose) in degradation product by alpha-amylase / G3 (maltotriose) in degradation product by alpha-amylase / PI in degradation product by alpha-amylase / PII in degradation product by alpha-amylase: pH6.9, 37° C., 18 hours. It is filed as biochemical. On the procedure:
(§1) The non-reducing saccharide preparations PI, PII, PIII, PIV and PV as substrates prepared in Experiment 4 were subjected to pig pancreas alpha-amylase, rice alpha-glucosidase and acetone-pulverized rat small intestine enzyme, all of which were products of Sigma Chemical Co., St Louis, Mo., USA, and the degradation products were analyzed on high-performance liquid chromatography for saccharide composition. The reaction by alpha-amylase was carried out by dissolving 10 mg of either substrate in 1 ml of 50 mM phosphate buffer (pH6.9), adding thereto one unit of alpha-amylase and incubating at 37° C. for 18 hours. The reaction by alpha-glucosidase was conducted similarly as in the case of alpha-amylase except that 50 mM acetate buffer (pH4.0) was used. In the case of acetone-pulverized rat small intestine enzyme, the reaction was conducted similarly as in the case of alpha-amylase except that 50 mM maleic acid buffer (pH6.0) was used.

The subject of another series is glucoamylase. In words: Enzymatic hydrolysis by glucoamylase. It is filed as biochemical. The settings on record: for Molar ratio (glucose/trehalose): degradation product by glucoamylase; for Glucose in degradation product by glucoamylase / Trehalose in degradation product by glucoamylase: pH4.5, 40° C., 6 hours. On the procedure: Fifty milligrams of the non-reducing saccharide preparation PI, PII, PIII, PIV or PV prepared in Experiment 4 was dissolved in 1 ml of 50 mM acetate buffer (pH4.5), added with one unit of the glucoamylase commercialized by Seikagaku Corp., Tokyo, Japan, incubated at 40° C. for 6 hours for enzymatic hydrolysis and analyzed for degradation products on high-performance liquid chromatography, thus detecting glucose and trehalose as sole products. The noted glucose contents, trehalose contents and their molar ratios were as shown in Table 5.

The subject of the next series is pig kidney trehalase. In words: Degradation by pig kidney trehalase. The series is classed as biochemical. The settings on record: trehalose, or trehalose formed from PI-PV; pH5.7, 37° C., 18 hours for the latter. How it is done:
In order to purify trehalose from respective reaction products, they were decolored, deionized, concentrated and subjected to column fractionation on a strongly-acidic cation exchange of sodium form "XT-1016", followed by recovering high-purity fractions with trehalose contents of 97% or higher. The fractions were then concentrated to about 65% and allowed to standing at 25° C. for 2 days to crystallize out crystalline trehalose hydrate which was then separated and dried in vacuo to obtain a high-purity preparation with a trehalose content of 99% or higher. The yields against respective starting substrates on dry solid basis were as follows: from glycosyl trehalose, 9.5%; from maltosyl trehalose, 14.9%; from maltotriosyl trehalose, 16.0%; from maltotetraosyl trehalose, 18.5%; and from maltopentaosyl trehalose, 17.7%. […] As evident from the above results, the saccharides formed by subjecting alpha-glycosyl trehaloses to the trehalose-releasing enzyme were identified to be trehalose.

Series [2] can be described thus: Reducing power by the Somogyi-Nelson method, represented in terms of DE. The series is classed as physicochemical. The settings on record: high-purity preparations, Somogyi-Nelson method. How it is done: The high-purity preparations of the newly formed saccharides were determined for reducing power by the Somogyi-Nelson method and represented in terms of DE.
Another series concerns beta-amylase. In words: Degradation by beta-amylase. It is filed as biochemical. The text has this:
Considering the reaction characteristics of glucoamylase, these saccharides very likely bear structures where glucose molecule(s) is bound to trehalose molecule via alpha1,4 or alpha-1,6 linkage: Saccharide PI is a non-reducing saccharide with a glucose polymerization degree of 3 where one glucose molecule is bound to one trehalose molecule; saccharide PII, another non-reducing saccharide with a glucose polymerization degree of 4 where two glucose molecules are bound to one trehalose molecule; saccharide PIII, still another non-reducing saccharide with a glucose polymerization degree of 5 where three glucose molecules are bound to one trehalose molecule; saccharide PIV, still another non-reducing saccharide with a glucose polymerization degree of 6 where four glucose molecules are bound to one trehalose molecule; and saccharide PV, still another non-reducing saccharide with a polymerization degree of 7 where five glucose molecules are bound to one trehalose molecule.

A further series relates to rice alpha-glucosidase. Kind of series: Degradation by rice alpha-glucosidase. The conditions noted are these: for Glucose in degradation product by alpha-glucosidase / Others in degradation product by alpha-glucosidase / Trehalose in degradation product by alpha-glucosidase: pH4.0, 37° C., 18 hours. It is filed as biochemical. On the procedure: as §1
The target in series [3] is T1, trehalose-releasing enzyme (Rhizobium sp. M-11, UniProt Q53238).
T1 construct: M-11, about 58-68 kDa
T1 sequence (Q53238 1-596): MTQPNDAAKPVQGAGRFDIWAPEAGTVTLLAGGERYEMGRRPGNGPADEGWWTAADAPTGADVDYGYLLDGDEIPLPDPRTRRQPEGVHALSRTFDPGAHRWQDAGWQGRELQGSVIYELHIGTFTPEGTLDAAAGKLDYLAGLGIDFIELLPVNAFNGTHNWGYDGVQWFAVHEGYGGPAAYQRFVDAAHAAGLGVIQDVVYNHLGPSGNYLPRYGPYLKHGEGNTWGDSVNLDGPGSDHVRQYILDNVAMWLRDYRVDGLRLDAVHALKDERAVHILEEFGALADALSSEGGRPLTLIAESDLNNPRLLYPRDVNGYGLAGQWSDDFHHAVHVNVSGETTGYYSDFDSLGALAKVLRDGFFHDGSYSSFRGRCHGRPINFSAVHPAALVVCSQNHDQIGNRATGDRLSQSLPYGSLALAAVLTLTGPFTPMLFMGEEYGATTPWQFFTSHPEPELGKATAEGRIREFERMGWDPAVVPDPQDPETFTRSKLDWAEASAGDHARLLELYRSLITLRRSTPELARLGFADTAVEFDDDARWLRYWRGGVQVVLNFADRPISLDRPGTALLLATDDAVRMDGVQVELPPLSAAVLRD
The series is classed as biochemical, Rhizobium species M-11. The conditions noted are these: for Composition: trehalose formed / Composition: reducing saccharide formed: 20% substrate, 2 units/g, 40° C., pH7.0, 48 hours; for Composition: reducing saccharide formed: glucose, maltose, maltotriose, maltotetraose or maltopentaose respectively; for Composition: residual substrate: trehalose-releasing enzyme, 48 h, pH 7. How it is done: Alpha-glycosyl trehaloses as substrates were prepared in accordance with the method described in Japanese Patent Application No. 349,216/93. More particularly, 20% aqueous solutions of maltotriose, maltotetraose, maltopentaose, maltohexaose or maltoheptaose as reducing partial starch hydrolysate were added with 2 units/g substrate solid of a purified non-reducing saccharide-forming enzyme obtained by the method in […], reacted at 40° C. and pH7.0 for 48 hours, heated for inactivation, filtered, deionized, concentrated in conventional manner and applied to ion exchange column chromatography on a strongly-acidic cation exchange "XT-1016" in sodium form. The ion exchange resin was packed in 3 jacketed-stainless steel columns, inner diameter of 2.0 cm, length of 1 m, and the columns were cascaded, loaded with 5 v/v % reaction saccharide liquid against the resin and injected with 55° C. water at SV0.13 for fractionation while keeping the temperature inside the columns at 55° C., thus obtaining high-purity preparations of non-reducing saccharides with glucose polymerization degrees of 3 or higher.
20% Aqueous solutions of these five types of non-reducing saccharides or alpha-glycosyl trehaloses were prepared, added with 2 units/g substrate solid of the purified trehalose-releasing enzyme obtained in Experiment 15, reacted at 40° C. and pH7.0 for 48 hours, deionized and subjected to high-performance liquid chromatography on "WAKO BEADS WB-T-330" for analysis of reaction products. As control, maltotriose, maltotetraose, maltopentaose, maltohexaose and maltoheptaose were subjected to the purified trehalose-releasing enzyme similarly as above and then analyzed on high-performance liquid chromatography.

Entries after “also recorded” stand apart in the source; their conditions may differ.

Take `OC[C@H]1O[C@H](O[C@H]2O[C@H](CO)[C@@H](O[C@H]3O[C@H](CO)[C@@H](O)[C@H](O)[C@H]3O)[C@H](O)[C@H]2O)[C@H](O)[C@@H](O)[C@@H]1O` [PI, alpha-glucosyl trehalose]: in series [1], the “Degradation by alpha-amylase (in words)” value was “hardly degraded by alpha-amylase”, the “G1 (glucose) in degradation product by alpha-amylase” value (from here on “G1 (glucose) in degradation product”) is on record as 0%, the “G2 (maltose) in degradation product by alpha-amylase” value (from here on “G2 (maltose) in degradation product”) is recorded as 0.4% and the “G3 (maltotriose) in degradation product by alpha-amylase” value (from here on “G3 (maltotriose) in degradation product”) is on record as 2.3%. Moreover, in series [1], the “PI in degradation product by alpha-amylase” value (from here on “PI in degradation product”) worked out at 97.3% and the “PII in degradation product by alpha-amylase” value (“PII in degradation product” below) is reported as 0%. For the same compound, in the series on glucoamylase, the “Degradation by glucoamylase (in words)” value is “degraded by glucoamylase into one glucose molecule and one trehalose molecule”; the “Molar ratio (glucose/trehalose)” value came out at 1.07; the “Glucose in degradation product by glucoamylase” value (“Glucose … by glucoamylase” below) came out at 36.2%; the “Trehalose in degradation product by glucoamylase” value (shortened to “Trehalose … by glucoamylase”) was 63.8%. Besides, in the series on pig kidney trehalase, the “Degradation by pig kidney trehalase (in words)” value is listed as “degradable into glucose by the trehalase”. In addition, the “DE of saccharide preparation” value in series [2] is 0.83. Also, the “Degradation by beta-amylase (in words)” value with beta-amylase is listed as “not degraded”. For the same compound, in the series with rice alpha-glucosidase, the “Degradation by alpha-glucosidase (in words)” value is listed as “degradable”, the “Glucose in degradation product by alpha-glucosidase” value (shortened to “Glucose … by alpha-glucosidase”) is 36.5%, the “Others in degradation product by alpha-glucosidase” value (from here on “Others in degradation product”) worked out at 0.5% and the “Trehalose in degradation product by alpha-glucosidase” value (“Trehalose … by alpha-glucosidase” below) turned out to be 63.0%. Also, in series [3], the “Composition: trehalose formed” value was 17.5%, the “Composition: reducing saccharide formed” value stood at 6.5% and the “Composition: residual substrate” value is 76.0%.
For `OC[C@H]1O[C@H](O[C@H]2O[C@H](CO)[C@@H](O[C@H]3O[C@H](CO)[C@@H](O[C@H]4O[C@H](CO)[C@@H](O)[C@H](O)[C@H]4O)[C@H](O)[C@H]3O)[C@H](O)[C@H]2O)[C@H](O)[C@@H](O)[C@@H]1O` [PII, alpha-maltosyl trehalose], in series [1], the “Degradation by alpha-amylase (in words)” value is given as “hardly degraded by alpha-amylase”, the “G1 (glucose) in degradation product” value is reported as 0%, the “G2 (maltose) in degradation product” value was found to be 0.8% and the “G3 (maltotriose) in degradation product” value is recorded as 0.4%. In series [1], the “PI in degradation product” value is listed as 0% and the “PII in degradation product” value is on record as 98.8%. In the series with glucoamylase, the “Degradation by glucoamylase (in words)” value is “two glucose molecules and one trehalose molecule; also recorded: one trehalose molecule and two glucose molecules”; the “Molar ratio (glucose/trehalose)” value was 2.06; the “Glucose … by glucoamylase” value is 52.0%; the “Trehalose … by glucoamylase” value is 48.0%. Also, the “Degradation by pig kidney trehalase (in words)” value in the series on pig kidney trehalase is on record as “degradable into glucose by the trehalase”. Also, the “DE of saccharide preparation” value in series [2] was found to be 0.35. In addition, the “Degradation by beta-amylase (in words)” value in the series on beta-amylase is listed as “not degraded”. For the same compound, in the series with rice alpha-glucosidase, the “Degradation by alpha-glucosidase (in words)” value is listed as “degradable”, the “Glucose … by alpha-glucosidase” value is reported as 52.1%, the “Others in degradation product” value is listed as 0.3% and the “Trehalose … by alpha-glucosidase” value is recorded as 47.6%. Besides, in series [3], the “Composition: trehalose formed” value is 44.3%, the “Composition: reducing saccharide formed” value was 44.4% and the “Composition: residual substrate” value came out at 11.3%.
On to `OC[C@H]1O[C@H](O[C@H]2O[C@H](CO)[C@@H](O[C@H]3O[C@H](CO)[C@@H](O[C@H]4O[C@H](CO)[C@@H](O[C@H]5O[C@H](CO)[C@@H](O)[C@H](O)[C@H]5O)[C@H](O)[C@H]4O)[C@H](O)[C@H]3O)[C@H](O)[C@H]2O)[C@H](O)[C@@H](O)[C@@H]1O` [PIII, alpha-maltotriosyl trehalose], for which, in series [1], the “Degradation by alpha-amylase (in words)” value is given as “degraded by alpha-amylase into smaller oligosaccharides”, the “G1 (glucose) in degradation product” value was 1.2%, the “G2 (maltose) in degradation product” value is given as 33.0% and the “G3 (maltotriose) in degradation product” value amounted to 0%. Further, in series [1], the “PI in degradation product” value worked out at 61.0% and the “PII in degradation product” value was determined as 4.8%. In the series on glucoamylase, the “Degradation by glucoamylase (in words)” value was “three glucose molecules and one trehalose molecule”; the “Molar ratio (glucose/trehalose)” value was found to be 3.02; the “Glucose … by glucoamylase” value came out at 61.4%; the “Trehalose … by glucoamylase” value is reported as 38.6%. The “Degradation by pig kidney trehalase (in words)” value in the series with pig kidney trehalase was “degradable into glucose by the trehalase”. Further, the “DE of saccharide preparation” value in series [2] turned out to be 0.10. The “Degradation by beta-amylase (in words)” value in the series on beta-amylase was “degraded into one maltose molecule and one saccharide PI molecule”. Besides, in the series on rice alpha-glucosidase, the “Degradation by alpha-glucosidase (in words)” value is “degradable”, the “Glucose … by alpha-glucosidase” value is on record as 61.7%, the “Others in degradation product” value is on record as 0.2% and the “Trehalose … by alpha-glucosidase” value is reported as 38.1%. Besides, in series [3], the “Composition: trehalose formed” value amounted to 39.5%, the “Composition: reducing saccharide formed” value turned out to be 60.0% and the “Composition: residual substrate” value came out at 0.5%.

The values are drawn from US5919668A, “Non-reducing saccharide and its production and use” (Kabushiki Kaisha Hayashibara Seibutsu Kagaku Kenkyujo, priority 1994, dated 1999).
